Results reported in paper PMC11855827, “High-Throughput Screening of Five Compound Libraries for Anthelmintic Activity and Toxicity Leads to the Discovery of Two Flavonoid Compounds” (International Journal of Molecular Sciences, 2025).
“And” between values parts separate entries of the source, which are not always exact repeats. Identical values can stand only once.

Test system: C. elegans
Settings: Table S2, C. elegans SS assay, 110 μM, averages of 4 data points

Compound	Percentage of motility inhibition 0 h	Percentage of motility inhibition 24 h
CCN1C[C@@]2(COC)[C@H]3[C@@H](OC)[C@H]4[C@@H]1[C@]3([C@@H](OC)C[C@H]2OC(C)=O)[C@@H]1C[C@@]2(O)[C@H](OC(=O)c3ccccc3)[C@@H]1[C@]4(OC(C)=O)[C@@H](O)[C@@H]2OC [Flaconitine]	13% and 5%	
CCCCCc1cc(=O)c2ccccc2n1C [1‐Methyl‐2‐pentyl‐4(1H)‐quinolinone]	44%	30%
Strictosamide	0%	9%
COc1cc(C2Oc3ccc(-c4cc(=O)c5c(O)cc(O)cc5o4)cc3OC2CO)ccc1O (racemic) [(Rac)‐Hydnocarpin]	7%	0%
C[C@H](CCC(=O)NCCS(=O)(=O)[O-])[C@H]1CC[C@H]2[C@@H]3CC[C@@H]4C[C@H](O)CC[C@]4(C)[C@H]3C[C@H](O)[C@]12C.[Na+] [Taurodeoxycholic acid (sodium hydrate)]	8%	3%
CSCCC(=O)O [3‐(Methylthio)propionic acid]	9%	0%
CNCC(O)c1ccc(O)cc1 (stereo not shown) [p‐Synephrine]	13%	0%
CC1(C)CC[C@]2(C(=O)O)CCC3=C([C@@H](CCl)C[C@@H]4[C@@]5(C)C[C@H](O)[C@H](O)[C@@](C)(C(=O)O)[C@@H]5CC[C@@]34C)[C@@H]2C1 [Tenuigenin]	11%	11%
O=c1c2ccccc2nc2n1CC[C@@H]2O [Vasicinone]	0%	0%
COc1cc(OC)c2c(=O)cc(-c3ccccc3)oc2c1 [5,7‐Dimethoxyflavone]	37%	15%
COc1ccc(-c2cc(=O)c3c(OC)cc(OC)c(OC)c3o2)cc1 [6‐Demethoxytangeretin]	31%	8%
CC(C)[C@H](N)C(=O)OCC(CO)OCn1cnc2c(=O)nc(N)[nH]c21.Cl (stereo partly shown) [Valganciclovir (hydrochloride)]	9%	0%
Escin		8% and 6%
C[C@H](CC[C@@H](O[C@@H]1O[C@H](CO[C@@H]2O[C@H](CO)[C@@H](O)[C@H](O)[C@H]2O)[C@@H](O)[C@H](O)[C@H]1O)C(C)(C)O)[C@H]1CC[C@@]2(C)[C@@H]3CC=C4[C@@H](CC[C@H](O[C@@H]5O[C@H](CO[C@@H]6O[C@H](CO)[C@@H](O)[C@H](O)[C@H]6O)[C@@H](O)[C@H](O)[C@H]5O)C4(C)C)[C@]3(C)[C@H](O)C[C@]12C [Mogroside IV-A]	0%	0%
COc1cc(-c2coc3cc(O[C@@H]4O[C@H](CO)[C@@H](O)[C@H](O)[C@H]4O)c(OC)c(O)c3c2=O)ccc1O [Iristectorin B]	5%	6%
O=c1c2cc(O[C@@H]3O[C@H](CO)[C@@H](O)[C@H](O)[C@H]3O)c(O)cc2oc2cc(O)c([C@@H]3O[C@H](CO)[C@@H](O)[C@H](O)[C@H]3O)c(O)c12 [Neomangiferin]	7%	17%
CC(C)(C)NC(=O)[C@@H]1C[C@@H]2CCCC[C@@H]2CN1C[C@@H](O)[C@H](Cc1ccccc1)NC(=O)[C@H](CC(N)=O)NC(=O)c1ccc2ccccc2n1.CS(=O)(=O)O [Saquinavir (Mesylate)]	0%	10%
COc1ccc(CCNC(=O)/C=C/c2ccc(O)c(O)c2)cc1 [N‐Caffeoyl O‐methyltyramine]	0%	0%
CC1(C)CC[C@]23CO[C@@]4(C=C[C@@H]5[C@@]6(C)CC[C@H](O)[C@@](C)(CO)[C@@H]6CC[C@@]5(C)[C@]4(C)C[C@@H]2O)[C@@H]3C1 [Saikogenin F]	53%	46%
C[C@H](CCC(=O)NCC(=O)[O-])[C@H]1CC[C@H]2[C@@H]3[C@H](O)C[C@@H]4C[C@H](O)CC[C@]4(C)[C@H]3C[C@H](O)[C@]12C.[Na+] [Glycocholic acid (sodium)]	0%	0%
CCCCCCCCCCCCCCCCCCCCCCO [1-Docosanol]	7%	8%
CC(C)[C@H](N)C(=O)OCCOCn1cnc2c(=O)nc(N)[nH]c21.Cl [Valacyclovir (hydrochloride)]	38%	9%
COc1cc(O)c2c(=O)cc(-c3ccc(OC)c(OC)c3)oc2c1 [7,3',4'‐Tri‐O‐methylluteolin]	13%	21%

Compound	Percentage of motility inhibition 0 h	Percentage of motility inhibition 24 h
O=C(O)Cc1c[nH]c2ccccc12 [3‐Indoleacetic acid]	4%	11%
C=C1[C@@H]2CC[C@H]3[C@]4(C)C[C@H](O[C@H]5O[C@@H](CO)[C@H](OS(=O)(=O)[O-])[C@@H](OS(=O)(=O)[O-])[C@@H]5OC(=O)CC(C)C)C[C@@](C(=O)[O-])(C(=O)O)[C@H]4CC[C@]3(C2)[C@H]1O.[K+].[K+].[K+] [Carboxyatractyloside (tripotassium)]	23%	23%
C[C@H](CC(=O)[C@@H]1OC1(C)C)[C@H]1C(=O)C[C@@]2(C)C3=CC[C@H]4C(C)(C)[C@@H](O[C@@H]5OC[C@@H](O)[C@H](O)[C@H]5O)CC[C@@]45C[C@@]35[C@@H](O)C[C@]12C [Cimicifugoside H-1]	0%	3%
O.O=C(O)CC(O)(CC(=O)O)C(=O)O [Citric acid (monohydrate)]	63%	32%
Madecassoside	12%	1%
C[N+](C)(C)C[C@H](O)CC(=O)[O-] [L-Carnitine]	7%	1%
NC[C@H]1O[C@H](O[C@H]2[C@H](O[C@@H]3O[C@H](CO)[C@@H](O)[C@H]3O)[C@@H](O)[C@H](N)C[C@@H]2N)[C@H](N)[C@@H](O)[C@@H]1O.O=S(=O)(O)O [Ribostamycin (sulfate)]	33%	13%
Bacopaside II	7%	9%
O=C(O)[C@H]1O[C@@H](O[C@H]2[C@H](Oc3cc(O)c4c(=O)cc(-c5ccc(O)c(O)c5)oc4c3)O[C@H](C(=O)O)[C@@H](O)[C@@H]2O)[C@H](O)[C@@H](O)[C@@H]1O [Luteolin 7‐diglucuronide]	20%	7%
CC1(C)[C@@H](O[C@H]2O[C@H](C(=O)O)[C@@H](O)[C@H](O)[C@H]2O[C@@H]2O[C@H](C(=O)O)[C@@H](O)[C@H](O)[C@H]2O)CC[C@]2(C)[C@H]3C(=O)C=C4[C@@H]5C[C@@](C)(C(=O)O)CC[C@]5(C)CC[C@@]4(C)[C@]3(C)CC[C@@H]12.N.N [Diammonium Glycyrrhizinate]		4% and 11%
CC[C@@]1(O)C(=O)OCc2c1cc1n(c2=O)Cc2cc3c(CN(C)C)c(O)ccc3nc2-1.Cl [Topotecan (Hydrochloride)]	5%	3%
(+)-Catechin hydrate	12% and 8%	
CN1[C@@H]2CC[C@H]1C[C@@H](OC(=O)[C@H](CO)c1ccccc1)C2 [L-Hyoscyamine]	55%	28%
C[C@@H]1CC[C@]2(C(=O)O[C@@H]3O[C@H](CO)[C@@H](O)[C@H](O)[C@H]3O)CC[C@]3(C)C(=CC[C@@H]4[C@@]5(C)CC[C@H](O)[C@](C)(C(=O)O)[C@@H]5CC[C@]43C)[C@@H]2[C@]1(C)O [Ilexsaponin A]	0%	12%
Cc1nc(C)c(C)nc1C.Cl [Ligustrazine (hydrochloride)]	0%	17%
CCC(C)(C)C(=O)OC1=C(c2ccc(Cl)cc2Cl)C(=O)OC12CCCCC2 [Spirodiclofen]	5%	0%
C=C1[C@H](CO)[C@@H](O)C[C@@H]1n1cnc2c(=O)[nH]c(N)nc21.O [Entecavir (monohydrate)]	18%	3%
CC(=O)OC(C)(C)CCC(=O)[C@](C)(O)[C@H]1[C@H](O)C[C@@]2(C)[C@@H]3CC=C4[C@@H](C[C@H](O)C(=O)C4(C)C)[C@]3(C)C(=O)C[C@]12C [Dihydrocucurbitacin B]	0%	11%
Br.COc1ccc2c3c1O[C@H]1C[C@@H](O)C=C[C@@]31CCN(C)C2 [Galanthamine (hydrobromide)]	2% and 0%	
C[C@H]1O[C@@H](O[C@H]2CC[C@@]3(C)[C@@H](CC[C@]4(C)[C@@H]3C=CC3=C5CC(C)(C)CC[C@]5(CO)[C@@H](O)C[C@]34C)[C@]2(C)CO)[C@H](O[C@@H]2O[C@H](CO)[C@@H](O)[C@H](O)[C@H]2O)[C@@H](O[C@@H]2O[C@H](CO)[C@@H](O)[C@H](O)[C@H]2O)[C@H]1O [Buddlejasaponin IVb]	0%	4%
O=C(O)[C@H]1O[C@@H](Oc2c(-c3ccc(O)cc3)oc3cc(O)cc(O)c3c2=O)[C@H](O)[C@@H](O)[C@@H]1O [Kaempferol 3‐O‐β‐D‐glucuronide]	5%	0%
OCc1ccc(O)cn1 [2‐Hydroxymethyl‐5‐hydroxypyridine]	0%	0%
